Consider one compound from patent publication US20250213560A1, “NITROGEN-CONTAINING HETEROCYCLIC COMPOUNDS HAVING PHENYL GROUP AND USES THEREOF” (BNH RESEARCH CO., LTD., priority 2022, published 2025).

For one experiment, the system named is APP/PS1 mice. Put plainly: Barrel cortex TC potency and GABA/AMPA ratio in Alzheimer's model mice. It is filed as in vivo, mouse. On the procedure: All electrophysiological experiments were conducted at 27 to 29° C. For electrophysiological experiments, electrodes with […] resistance were used and stimuli were applied to the ventral posteromedial nucleus (VPM) using a concentric bipolar electrode (FHC, Bowdoin, ME). The somatosensory cortex was identified by the presence of barrels under 4×magnification and differential interference contrast (DIC) optics, and by the ability to evoke short and constant latency field excitatory postsynaptic potentials (fEPSPs) by VPM stimulation. […]
For the minimal stimulation protocol (Potency), VB thalamic stimulation intensity was adjusted to find the lowest intensity that elicited a mixture of synaptic responses and failures. Failure rate was calculated as the number of failures/total number of trials. Potency was calculated as the mean EPSC peak amplitude excluding failures (see Chittajallu & Isaac, 2010, Emergence of cortical inhibition by coordinated sensory-driven plasticity at distinct synaptic loci, DOI: 10.1038/nn.2639; see Isaac et al., 1997, Silent Synapses during Development of Thalamocortical Inputs, https://doi.org/10.1016/S08966273 (00) 80267-6; and see Stevens & Wang, 1995, Facilitation and depression at single central synapses, DOI: 10.1016/08966273 (95) 90223-6). […]

A further experiment relates to GluN2B. Put plainly: GluN2B expression in SH-SY5Y cells. The experiment is classed as cell-based, human. The settings on record: 1 μM, application for 6 and 24 hours. On the procedure:
Human undifferentiated neuroblastoma cell line SH-SY5Y and human embryonic kidney cell line (HEK)-293T were purchased from Korean Cell Line Bank (Korea) and Takara (Japan), respectively. Cells were grown in HyClone Minimal Essential Medium (MEM) and Dulbecco's Modified Eagle Medium (DMEM), respectively, supplemented with 10% (v/v) fetal bovine serum (FBS), penicillin (100 U/mL), and streptomycin ([…]). Cells were maintained in a humidified atmosphere of 95% air and 5% CO2 at 37° C. Cells were passaged 10 times at maximum. Cells were dissociated using 0.05% trypsin-EDTA solution and the cells were seeded in new culture dishes for maintenance.
RT-PCR was used to measure the amount of BDNF and GluN2B in response to compounds of the present disclosure. 293T cells were dissociated using 0.05% Trypsin-EDTA solution and seeded in 24 well or 6 well dishes for RNA work. After incubation at 37° C. in a humidified atmosphere with 5% CO2 for 24 hours, the culture medium was replaced by a medium containing a series of concentrations of tested compounds diluted with the DMEM without FBS. Time course experiments were performed. The same volume of DMSO was used for negative control.
Similarly, BnH12003 (1 μM) augmented BDNF and GluN2B expression by application for 6 and 24 hours in SH-SY5Y cells (FIGS. 11A and 11B).

For the compound `C[C@H]1CC[C@@H](C(=O)O)CN1C(=O)Cc1ccc(-c2cncnc2)cc1` [BnH12003, (3R,6S)-6-methyl-1-(2-(4-(pyrimidin-5-yl)phenyl)acetyl) piperidine-3-carboxylic acid], the “GABA/AMPA ratio (balance of excitation/inhibition)” value in the experiment with APP/PS1 mice (barrel cortex layer 4, Os pump 3 μM) was “maintaining the balance of excitation/inhibition”. In addition, the “excitatory TC synaptic potential (TC potency)” value in the experiment on APP/PS1 mice (barrel cortex layer 4, Os pump, BnH12003 3 μM, solanezumab 200 μg) is listed as “increased the excitatory TC synaptic potential”. In addition, the GluN2B expression entry with GluN2B was “augmented”.
